Measured values: patent publication US20250213561A1, “SELECTIVE HYPOTHALAMUS PERMEABLE HDAC6 INHIBITORS FOR TREATMENT OF LEPTIN-RESISTANT OBESITY” (The Children’s Medical Center Corporation, priority 2022, published 2025)
“Also recorded” adds a separate entry of the source.

What was measured:
[1] = test system: ACY775-responsive DMH neurons; assay: Caspase3 ablation of ACY775-responsive DMH neurons in TRAP2 DIO mice; format: in vivo
Experimental: Whether the activity of ACY775-responsive DMH neurons could be involved in the food intake and bodyweight reducing activity of HDAC6 inhibitors was investigated as a possible second order of neurons to AgRP^ARC neurons. These neurons were ablated to investigate the necessity of these neurons in mediating the ACY775's anti-obesity effects. AAV-flex-taCasp3-TEVp was injected into the DMH of TRAP2 DIO mice, and then the mice were injected with a single dose of ACY775 and 4-OHT to ablate these neurons through caspase3 protein activation. To make sure that this experimental system worked, the existence of ACY775-responsive DMH neurons was verified by c-fos staining after injection of a second dose of ACY775. This experimental method predicts that caspase 3, when activated by administration of the first dose of ACY775 in conjugation with 4-OHT injection, will lead to ablation of ACY775-responsive DMH neurons, and diminish the c-fos signals that would otherwise be created by the second dose of ACY775.

DMH neurons = assay: c-Fos immunostaining in DMH of DIO mice; format: in vivo; conditions: fasting, acute 10 mg/kg i.p.
Experimental: Following the bilateral injection of AAV-sgHDAC6 into the arcuate nucleus of Agrp-ires-cre::LSL-Cas9-GFP (Agrp-Cre^+/−::Cas9^+/−) or control LSL-Cas9-GFP (Cas9^+/−) mice, immunostaining to detect the expression of mCherry and GFP was performed. AAV-sg-HDAC6 injected Agrp-Cre^+/−::Cas9^+/− (HDAC6^Agrp-Δ) and Cas9^+/−(HDAC6^WT) DIO mice (n=7 for each group) were fasted for 24 hours, and injected with ACY775 (10 mg/kg. i.p). Hourly total dark cycle food intake (g) (n=7 for each group) of these mice after ACY775 injection was measured. Body weight of AAV-sg-HDAC6 injected HDAC6^Agrp-Δ (n=11) and HDAC6^WT (n=6) mice were measured during 3 weeks of ACY775 (10 mg/kg/day, i.p.) treatment. Daily average food intake of HDAC6^Agrp-Δ (n=11) and HDAC6^WT (n=6) mice was measured during 3 weeks of ACY775 (10 mg/kg/day, i.p.) treatment. 24-hour food intake average of HDAC6^Agrp-Δ and HDAC6^WT mice during the 3 weeks of ACY775 treatment was assessed. Serum leptin level (ng/ml) of HDAC6^Agrp-Δ and HDAC6^WT mice after 2 weeks of ACY775 treatment (n=13 for HDAC6^WT and n=18 for HDAC6^Agrp-Δ) was measured. Lean mass (g); fat mass; and fat percentage (%) of HDAC6^Agrp-Δ and HDAC6^WT DIO mice after 3 weeks of ACY775 treatment was measured by DEXA scan. The HDAC6 inhibitor responsive neurons in the dorsomedial hypothalamus (DMH) were assessed. […]

HDAC6 = HDAC6 (Mus musculus (Mouse), UniProt Q9Z2V5); assay: LepRb acetyl-lysine immunoblotting in transfected HEK293 cells; format: cell-based; conditions: 200 nM, 0.5-3 h
Experimental: HEK293 cells were transfected with the plasmids and were treated with vehicle or ACY775. Subsequently Flag immunoprecipitation was used to pull down LepRb followed by Ac^Lys or Flag immunoblotting.
To test whether HDAC6 can deacetylate LepRb, HEK293 cells were transfected with plasmids (LepRb-Flag, HA-p300 and HDAC6-myc). LepRb was immunoprecipitated by Flag antibodies, which was followed by acetyl-lysine (Ac^Lys) or immunoblottings.
Next, cells were transfected with plasmids (LepRb-Flag, HA-p300 and HDAC6-myc) and subsequently treated with ACY775 ([…]) for 0.5, 1, 2 and 3 h. […] Next, to investigate whether HDAC6 has any effect on LepRb tyrosine phosphorylation, which is indicative of LepRb activation, HEK 293 cells were transfected with LepRb and HDAC6-Myc plasmids in the indicated order and the cells stimulated with leptin (200 ng/ml) for 10 and 60 minutes. The Flag immunoprecipitates were exposed to phospho-tyrosine (p^Tyr) immunoblotting.

[2] = test system: HDAC6 in ACY775-responsive DMH neurons; assay: TRAP2-HDAC6^DMH-Δ DIO mice; format: in vivo; conditions: TRAP2-HDAC6^DMH-Δ and TRAP2-HDAC6^WT DIO mice
Experimental: Coordinates used for aav-sg-HDAC6 injection into the DMH of c-Fos-iCreER::LSL-Cas9-GFP (TRAP2-Cas9) mouse., mCherry immunostaining in the aav-sg-HDAC6 injected TRAP2-cas9 obese mice, which were treated three weeks earlier with one dose of ACY775 (10 mg/kg, i.p.) (TRAP2-HDAC6^DMH-Δ) or vehicle (TRAP2-HDAC6^WT), followed by 4-Hydroxytamoxifen (4-OHT) injection, were assessed. TRAP2-HDAC6^WT and TRAP2-HDAC6^DMH-Δ mice were fasted 24-h and treated with ACY775 (10 mg/kg, i.p.). Hourly and total dark cycle food intake (g) (n=4 for each group) was determined for these mice after ACY775 injection. Daily body weight of TRAP2-HDAC6^DMH-Δ(n=10) or TRAP2-HDAC6^WT(n=11) DIO mice was measured during 2 weeks of ACY775 (10 mg/kg/day, i.p) treatment. Daily average food intake of TRAP2-HDAC6^DMH-Δ(n=10) or TRAP2-HDAC6^WT(n=11) DIO mice was measured during 2 weeks of ACY775 treatment.
To investigate whether activity of other neuronal populations are altered after HDAC6 inhibitor treatment, c-fos staining was performed in the whole brain of DIO mice, which were acutely treated with ACY775. […] Some of the DMH neurons express high levels of LepRb and involved in regulation of appetite […]. Whether HDAC6 in these ACY775-responsive DMH neurons is required or involved in any way in mediating the appetite suppressing and body weight lowering effects of ACY775 was then tested. […]

Chain of HDAC6 (Q9Z2V5 whole entry): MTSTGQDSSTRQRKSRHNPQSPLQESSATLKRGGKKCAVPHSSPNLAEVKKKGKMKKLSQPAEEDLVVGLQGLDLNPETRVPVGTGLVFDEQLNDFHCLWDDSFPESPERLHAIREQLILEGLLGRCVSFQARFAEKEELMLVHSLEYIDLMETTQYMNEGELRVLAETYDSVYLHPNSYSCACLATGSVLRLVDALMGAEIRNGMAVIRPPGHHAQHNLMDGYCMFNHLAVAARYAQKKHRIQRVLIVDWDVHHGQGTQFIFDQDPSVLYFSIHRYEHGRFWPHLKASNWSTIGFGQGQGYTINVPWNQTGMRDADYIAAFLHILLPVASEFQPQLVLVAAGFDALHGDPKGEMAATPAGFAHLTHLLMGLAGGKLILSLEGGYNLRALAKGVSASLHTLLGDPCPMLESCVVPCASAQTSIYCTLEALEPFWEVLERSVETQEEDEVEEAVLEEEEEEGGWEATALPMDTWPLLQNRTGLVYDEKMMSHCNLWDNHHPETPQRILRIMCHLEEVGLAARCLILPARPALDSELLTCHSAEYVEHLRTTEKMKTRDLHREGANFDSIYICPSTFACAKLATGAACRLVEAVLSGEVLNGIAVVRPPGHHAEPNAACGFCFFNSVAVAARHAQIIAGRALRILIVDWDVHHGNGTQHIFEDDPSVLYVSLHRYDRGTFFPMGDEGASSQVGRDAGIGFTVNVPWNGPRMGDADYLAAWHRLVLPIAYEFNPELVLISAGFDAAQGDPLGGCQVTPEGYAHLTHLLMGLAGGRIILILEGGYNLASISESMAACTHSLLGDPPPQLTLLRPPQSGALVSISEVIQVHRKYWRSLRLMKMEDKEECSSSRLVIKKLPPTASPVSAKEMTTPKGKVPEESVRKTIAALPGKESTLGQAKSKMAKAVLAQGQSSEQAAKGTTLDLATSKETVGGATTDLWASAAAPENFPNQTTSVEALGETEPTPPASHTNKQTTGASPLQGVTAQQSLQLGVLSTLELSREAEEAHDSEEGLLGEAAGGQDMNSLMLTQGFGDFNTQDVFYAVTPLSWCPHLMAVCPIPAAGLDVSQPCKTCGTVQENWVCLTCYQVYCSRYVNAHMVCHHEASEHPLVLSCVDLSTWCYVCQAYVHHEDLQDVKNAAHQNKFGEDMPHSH

O=C(NO)c1cnc(NC2(c3cccc(F)c3)CCCCC2)nc1 [ACY775, 2-[[1-(3-fluorophenyl)cyclohexyl]amino]-N-hydroxy-5-pyrimidinecarboxamide]
body weight and food consumption, chronic ([1]; 10 mg/kg/day i.p.): neither reduced the body weight nor the food consumption in caspase3^on-DMH mice; also recorded: did reduce the food intake and bodyweight in caspase3^off-DMH mice | blood glucose levels ([1]; caspase3^on-DMH versus caspase3^off-DMH): significantly higher in caspase3^on-DMH mice | food intake in fasted mice ([1]; caspase3^on-DMH versus caspase3^off-DMH, 10 mg/kg i.p.): significantly higher than caspase3^off-DMH mice | c-fos positive cell number in the DMH (DMH neurons): major increase in c-fos positive cell number | deacetylation of LepRb (HDAC6): can completely block deactylation of LepRb | body weight and food intake, two weeks [2]: lost weight and food intake was reduced equally in both groups | food intake after a dose in 24 h fasted mice [2]: consumed similar but small amount of food
